Results taken from PMC9398908, “GLP-1-mediated delivery of tesaglitazar improves obesity and glucose metabolism in male mice” (Nature Metabolism, 2022).
Values joined by “and” are separate entries in the source; they are usually repeats but may differ in a detail not shown here. Equal values may be shown once.

Assays:
hGLP-1R [1] = biological target: T1, hGLP-1R (Homo sapiens, UniProt P43220); test: Ligand-induced hGLP-1R-GFP Mini-Gαs recruitment (BRET) in mouse MIN6 β-cells; format: cell-based; conditions: Fig. 1d, in words
T1 construct: host or cells: HEK293T, transient transfection
T1 sequence (P43220 24-463): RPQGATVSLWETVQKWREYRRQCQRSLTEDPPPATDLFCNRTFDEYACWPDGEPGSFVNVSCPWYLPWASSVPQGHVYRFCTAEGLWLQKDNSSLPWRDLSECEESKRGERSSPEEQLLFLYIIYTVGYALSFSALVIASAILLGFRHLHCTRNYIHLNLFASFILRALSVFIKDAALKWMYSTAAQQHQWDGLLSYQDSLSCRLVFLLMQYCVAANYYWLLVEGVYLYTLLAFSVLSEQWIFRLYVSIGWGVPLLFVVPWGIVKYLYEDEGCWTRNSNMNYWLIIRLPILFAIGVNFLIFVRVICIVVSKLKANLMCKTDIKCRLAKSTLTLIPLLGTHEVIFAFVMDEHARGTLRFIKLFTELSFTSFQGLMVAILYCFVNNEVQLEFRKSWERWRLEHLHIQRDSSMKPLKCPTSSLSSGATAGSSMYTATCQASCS
Experimental: (§1) HEK293T cells (700,000 per well) were seeded in six-well plates and incubated to 70% confluency in DMEM (10% FBS, 1% Pen/Strep). Twenty-four hours following seeding, transient transfections were performed using Lipofectamine 2000 (catalogue no. 11668019, Invitrogen) according to the manufacturer’s protocol without including additional transformation carrier DNA.
(§2) Twenty-four hours following transfection, HEK293T cells or MIN6 cells were washed with PBS and resuspended in FluoroBrite phenol red-free complete media (catalogue no. A1896701, Life Technologies) containing 5% FBS and 2 mM of L-glutamine (catalogue no. 25030081, Life Technologies). 100,000 cells per well were plated into poly-D-lysine-coated (catalogue no. P6403, Sigma-Aldrich) 96-well white polystyrene LumiNunc plates (catalogue no. 10072151, Thermo Fisher Scientific). After 24 h, the media was replaced with PBS (catalogue no. 10010056, Gibco) containing 10 μM of coelenterazine-h (catalogue no. S2011, Promega) or 1:500 dilution of NanoGlo (catalogue no. N1110, Promega). BRET measurements were taken every 30 s–2 min using a PHERAstar FS multi-mode microplate reader. […] The resulting ligand-specific ratiometric BRET signals were normalized to vehicle producing the ‘ligand-induced BRET ratio’[37], followed by an additional normalization step to well-specific baseline readings.

hGLP-1R [2] = biological target: T1, hGLP-1R; test: Ligand-induced hGLP-1R-Rluc8 internalization (BRET) in mouse MIN6 β-cells; format: cell-based; conditions: Fig. 1f, in words
Experimental: as §1, §2

DIO mice = test: Acute i.p. glucose tolerance test in DIO mice 6 h after a single s.c. dose (Fig. 3); format: in vivo, mouse; set-up: AOC: unit not given here; conditions: for AOC: AOC of i.p. GTT, DIO mice, 6 h after single s.c. dose, individual animals
Experimental: Glp1r^−/− mice were kindly provided by D. Drucker (University of Toronto, Canada). All wildtype and knockout mice used in our studies were in-house bred on a C57BL/6J background. Mice were double-housed and kept in a constant environment with the ambient temperature set to 22 ± 2 °C with constant humidity (45–65%) and a 12 h/12 h light/dark cycle with lights off from 06:00 until 18:00. For studies in DIO mice, male C57BL/6J mice were fed with a high-fat diet comprising 58% kilocalories from fat (D12331, Research Diets). db/db mice were fed with a normal chow diet (T1314, Altromin GmbH) throughout the study. At the beginning of each experiment, mice were equally distributed into experimental groups according to their body weight and body composition. All animal studies were approved by the State of Bavaria, Germany, or the Insitutional Animal Care and Use Committee of the University of Cincinnati, OH, USA and conducted on the basis of the underlying animal welfare law of the respective countries. Compounds were dissolved in PBS and were s.c. administered with a volume of 5 μl g^−1 body weight in the indicated doses between 15:00 and 16:00.
Glucose tolerance was assessed in 6 h fasted mice after i.p injection of 1.75 g glucose per kg body weight (DIO mice). Insulin tolerance was assessed in 6 h fasted mice after i.p. injection of either 0.75 U Insulin per […] body weight (DIO mice) or 1 U Insulin per […] body weight (db/db mice) (Humalog, Eli Lilly). Tail vein blood glucose was subsequently measured using a handheld glucometer (TheraSense Freestyle) at baseline and after 15, 30, 60 and 120 min.

## CCO[C@@H](Cc1ccc(OCCc2ccc(OS(C)(=O)=O)cc2)cc1)C(=O)O [tesaglitazar, (S)-2-ethoxy-3-(4-(4-((methylsulfonyl)oxy)phenethoxy)phenyl) propanoic acid]
hGLP-1R [1]
  GLP-1R-mediated Gαs recruitment: had no effect
hGLP-1R [2]
  GLP-1R internalization: had no effect
DIO mice; 10 nmol/kg
  AOC: 602.5 and 1138 and 938 and 739 and 687.5 and 514.5 and 579.5 and 713.5
DIO mice; 100 nmol/kg
  AOC: 808 and 562 and 500.5 and 764.5 and 734.5 and 596.5 and 539.5 and 745.5
DIO mice; weight-matched DIO mice, single bolus 10 and 100 nmol kg−1, GTT 6 h after dose, Fig. 3a,b, in words
  i.p. glucose tolerance: acutely worsened i.p. glucose tolerance
